Here are results for two molecules from patent publication US10125358B2, “Methods and compounds for increasing threonyl-tRNA synthetase activity” (UNIVERSITY OF VERMONT AND STATE AGRICULTURAL COLLEGE, priority 2012, dated 2018).

Entries after “also recorded” stand apart in the source; their conditions may differ.

In series [1] the test system is HUVECs. In words: Cell viability by Trypan Blue exclusion. Type of series: cell-based, human. The following applies: concentrations below 100 nM. The method, then:
Cell viability was measured by counting cells in a hemacytometer with Trypan Blue exclusion (Sigma-Aldrich, St. Louis, Mo.) according to manufacturer's instructions. Measurements were normalized to untreated cells.

The subject of series [2] is HUVECs. In words: VEGF secretion into culture media (ELISA). The following applies: purified recombinant TARS added to HUVEC media for 24 h. Type of series: cell-based, human. As for the experimental part: ELISA and Lactate Dehydrogenase Assays—
Culture media supernatants were tested for levels of secreted TARS protein using the Threonyl tRNA Synthetase (TARS) ELISA Kit (USCN Life Science, Wuhan, Hubei, PRC) according to manufacturer's instructions. Cell membrane integrity was confirmed using the lactate dehydrogenase assay CytoTox-ONE™ Homogeneous Membrane Integrity Assay (Promega, Madison, Wis.) according to manufacturer's instructions and reported as percent cytotoxicity relative to a lysis control. Levels of secreted VEGF were measured using the Human VEGF ELISA kit (Thermo Scientific) per manufacturer's instructions.
(An ELISA detects its analyte on a solid surface through an enzyme-linked reagent.)

In the case of `C[C@@H]1C[C@H](C)C[C@H](C)[C@@H](O)CC(=O)O[C@H]([C@@H]2CC[C@H]2C(=O)O)C/C=C/C=C(/C#N)[C@H](O)[C@@H](C)C1` [BC194], in series [1], the cell viability result is given as “unaffected; also recorded: lack of effect”.

B1: TARS: N-terminal His6-tagged human threonyl-tRNA synthetase expressed and purified from E. coli; SEQ ID NO:2 (protein, listed as Homo sapiens)
chain: MFEEKASSPSGKMGGEEKPIGAGEEKQKEGGKKKNKEGSGDGGRAELNPWPEYIYTRLEMYNILKAEHDSILAEKAEKDSKPIKVTLPDGKQVDAESWKTTPYQIACGISQGLADNTVIAKVNNVVWDLDRPLEEDCTLELLKFEDEEAQAVYWHSSAHIMGEAMERVYGGCLCYGPPIENGFYYDMYLEEGGVSSNDFSSLEALCKKIIKEKQAFERLEVKKETLLAMFKYNKFKCRILNEKVNTPTTTVYRCGPLIDLCRGPHVRHTGKIKALKIHKNSSTYWEGKADMETLQRIYGISFPDPKMLKEWEKFQEEAKNRDHRKIGRDQELYFFHELSPGSCFFLPKGAYIYNALIEFIRSEYRKRGFQEVVTPNIFNSRLWMTSGHWQHYSENMFSFEVEKELFALKPMNCPGHCLMFDHRPRSWRELPLRLADFGVLHRNELSGALTGLTRVRRFQQDDAHIFCAMEQIEDEIKGCLDFLRTVYSVFGFSFKLNLSTRPEKFLGDIEVWDQAEKQLENSLNEFGEKWELNSGDGAFYGPKIDIQIKDAIGRYHQCATIQLDFQLPIRFNLTYVSHDGDDKKRPVIVHRAILGSVERMIAILTENYGGKWPFWLSPRQVMVVPVGPTCDEYAQKVRQQFHDAKFMADIDLDPGCTLNKKIRNAQLAQYNFILVVGEKEKISGTVNIRTRDNKVHGERTISETIERLQQLKEFRSKQAEEEF
modifications: N-terminal His6 tag
For B1, the “secretion of VEGF” value in series [2] is listed as “did not induce secretion of VEGF; also recorded: does not induce VEGF secretion”.
